ChEMBL document CHEMBL1201862, “PubChem BioAssay data set” (2004)
Calls of active or inactive are those of the source. Rule as the data show it: actives have a measured IC50 and inactives only a lower limit.

Molecular target: Envelope glycoprotein gp160 (Human immunodeficiency virus 1, UniProt Q6QLK5)
Test: cell-free HIV fusion peptide-binding blockers – biochemical, uHTS, fluorescence dequenching, […] (AID 1986)

Chain of Envelope glycoprotein gp160 (Q6QLK5 whole entry, the tested form may be a part): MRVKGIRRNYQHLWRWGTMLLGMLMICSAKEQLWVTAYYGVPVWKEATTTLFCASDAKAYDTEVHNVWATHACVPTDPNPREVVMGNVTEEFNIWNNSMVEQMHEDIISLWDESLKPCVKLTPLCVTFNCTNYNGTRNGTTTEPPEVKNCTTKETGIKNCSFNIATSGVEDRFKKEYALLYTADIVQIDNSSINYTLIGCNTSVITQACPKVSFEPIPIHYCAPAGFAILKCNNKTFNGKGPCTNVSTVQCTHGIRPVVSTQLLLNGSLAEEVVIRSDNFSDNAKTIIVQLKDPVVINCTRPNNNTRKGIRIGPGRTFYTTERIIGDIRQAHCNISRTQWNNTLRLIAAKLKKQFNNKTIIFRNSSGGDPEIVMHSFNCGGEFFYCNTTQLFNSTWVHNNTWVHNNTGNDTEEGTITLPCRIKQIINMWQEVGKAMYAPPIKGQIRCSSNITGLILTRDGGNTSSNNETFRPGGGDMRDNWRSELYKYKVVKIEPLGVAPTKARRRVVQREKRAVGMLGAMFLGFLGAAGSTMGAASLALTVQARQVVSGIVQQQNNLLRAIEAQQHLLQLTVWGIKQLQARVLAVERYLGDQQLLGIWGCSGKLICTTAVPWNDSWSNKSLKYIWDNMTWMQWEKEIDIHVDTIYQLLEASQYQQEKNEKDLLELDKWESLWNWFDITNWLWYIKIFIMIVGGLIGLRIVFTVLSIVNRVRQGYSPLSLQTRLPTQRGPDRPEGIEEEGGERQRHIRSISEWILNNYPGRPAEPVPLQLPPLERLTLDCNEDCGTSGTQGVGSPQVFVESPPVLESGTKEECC

Question: With COc1cc(/C=C2\SC(=O)N(CC(=O)Nc3cccc(C)c3)C2=O)cc([N+](=O)[O-])c1O as the compound, how does the IC50 read?
Answer: 23.1 µM (active)
